One block for each molecule: values may come before it.
Experiments:
[1] = test system: H1 hES cells; assay: hES colony number formation, H1; assay type: cell-based, human; details: H1 line
Source text: The human ES cell lines HSF-6 (University of California, San Francisco; NIH # UC06, Passage 38-120) and H1 and H9 (WiCell Research Institute, NIH # WA01 and […]) were maintained on mouse embryonic fibroblasts (MEF) according to the suppliers' protocols. Immunocytochemistry and FACS analysis for the expression of Oct4 and SSEA4 and SKY karyotyping established that the starting cells are undifferentiated and have a normal set of chromosomes. For single cell survival experiments, hES colonies were harvested after treatment with 1.5 mg/ml collagenase type IV (Invitrogen), separated from the MEF feeder cells by repeated washing by gravity, gently triturated to break up colonies into small aggregates, further dissociated into a single cell solution by trypsination (0.05% trypsin/0.04% EDTA) and transferred on MEF feeder cells at a density of 10000 cells/ml. Oct-4 positive colonies were counted six days after plating. […]
The pro-survival effects of activation of Notch and inhibition of JAK was tested on HSF-6 (NIH code UC06, http://escell.ucsf.edu), H1 (NIH code WA01, www.wicell.org) and H9 (NIH code WA09, www.wicell.org) hES cells. Singly dissociated hES cells were plated on mouse embryo fibroblasts (MEFs), treated daily for one week and colony numbers counted. […]

[2] = test system: Akt; assay: Akt phosphorylation immunoblot in CNS stem cells; assay type: cell-based, mouse; details: for Akt (total) / Akt-pS473 / Akt-pT308: absence of insulin
Method: Insulin in the medium is also thought to promote cell survival. […] Seeding cells in the absence of insulin caused the plating efficiency measured at five days to drop to 29.9%±37.9 (FIG. 1e). Delta-4 was able to compensate for the lack of insulin in the medium, and restored plating efficiency (125%±19.4). Because Notch activation improved survival, activation of Akt, a ser/threonine kinase known to be involved in cell survival, was assayed. Notch activation rapidly (5 minutes) promoted the phosphorylation of Akt on Ser473 and […] in both the presence and absence of insulin (FIG. 1f).

[3] = test system: adult rats; assay: Intraventricular infusion in normal adult rats, BrdU labeled cells; assay type: in vivo, rat; details: for concentration in the pump at which maximal effects were achieved: constant FGF2 2.5 μg/ml
Method: In-vivo Experiments: All drugs were infused over one week using an Alzet osmotic pump (model 2001 delivering at a rate of 1 μl/hr for seven days). Briefly, an intracerebral cannula connected to the pump was inserted into the right lateral ventricle using the following stereotaxic coordinates: bregma AP +0, Lateral −1.5 mm dorso-ventral 3.3 mm. Animals received IP injection of the tracer BrdU (50 mg/kg) every 12 hours for 5 days beginning on day one post-operatively to label dividing cells.
Immuno-positive cells were analyzed by confocal microscopy counted using a non-biased system on slides obtained from homologous coronal slices containing the infarct of each animal at the position between +0.2 and −3.8 mm from the center of the bregma according to stereotaxic coordinates. Cells were enumerated in […] regions of interest, on both the ipsilateral and contralateral hemispheres (to cannula, or cannula and ischemic focus): subventricular zone (SVZ), corpus callosum and white matter and the peri-infarct cortex.
The effect of intraventricular administration of Delta-4 was studied in adult rats. As in other tissues, the numbers of stem cells in the adult CNS are precisely controlled. […] In vivo manipulations were designed to ask if Notch ligands can act alone or substantially alter the effect of FGF2 on the numbers of proliferating cells in the SVZ of the normal brain. Animals (N=5-6 per treatment) were fitted with a mini-osmotic pump administering artificial cerebrospinal fluid (ACSF, vehicle), FGF2, Delta-4, or a combination FGF2+Delta-4 for one week into the ventricles of three-month old rats. Animals were also given twice-daily injections of bromodeoxyuridine (BrdU) from post-op days two to six to label cells generated during this time window. Two groups of animals were analyzed at day 7 and day 45 relative to the initiation of protein delivery. Delta-4 doses were chosen to provide a roughly equal concentration in the rat adult cerebrospinal fluid as in the cell culture medium of our in vitro experiments.

[4] = test system: IGF1/insulin receptor; assay: IGF1/insulin receptor phosphorylation in foetal NSC cultures; assay type: cell-based, mouse
Method: Specifically, D114 induced the phosphorylation of IGF1/insulin receptor. Peak phosphorylation occurred at 2-5 minutes.
It was determined that insulin facilitates Notch cleavage using immunocytochemical detection.

[5] = Insulin withdrawal, 2 days and then treat for 1 h

Molecule: CC(C)(C)c1nc2c3ccc(F)cc3c3c(=O)[nH]ccc3c2[nH]1 [JAK Inhibitor, 2-(1,1-Dimethylethyl)-9-fluoro-3,6-dihydro-7H-benz[h]-imidaz[4,5-f]isoquinolin-7-one]
colony number formation [1]: 448.5%±57.4

pIGF1 (19H7) [4, 5]: Low
pIGF1 (3021) [4, 5]: Low
time of peak phosphorylation of IGF1/insulin receptor ([4]; foetal NSC cultures): 2 to 5 min
Molecule: Delta-4: soluble Notch ligand Delta-4 (1389-D4) from R&D
Akt (total) ([2]; Dll4, 5 min): Medium
Akt-pS473 ([2]; Dll4, 5 min): High
Akt-pT308 ([2]; Dll4, 5 min): High
Akt (total) ([2]; Dll4, 10 min): Medium
Akt-pS473 ([2]; Dll4, 10 min): Medium
Akt-pT308 ([2]; Dll4, 10 min): Medium
time of peak Akt phosphorylation on Ser473 and Ser308 ([2]; presence and absence of insulin, Western blotting): 5 min
number of BrdU+ cells in SVZ, corpus callosum and cerebral cortex ([3]; 45 days, relative to FGF2 treated animals): increased number of BrdU+ cells
concentration in the pump at which maximal effects were achieved ([3]; contralateral site): ~4.2 µg/mL
number of proliferating cells / BrdU incorporation ([3]; day 7, contralateral site): induced significant increases in BrdU incorporation
number of BrdU labeled cells in SVZ, corpus callosum and cortex ([3]; day 7, hemisphere ipsilateral to the cannula): increased the number of BrdU labeled cells
concentration in the pump at which maximal effects were achieved ([3]; ipsilateral site): approximately 0.42 μg/ml
